Here are results for five compounds from patent US20230027072A1, “IMPROVED METHODS, KITS, COMPOSITIONS AND DOSING REGIMENS FOR THE USE OF HETEROCYCLIC INHIBITORS OF ERK1 AND ERK2” (Asana Biosciences, LLC, priority 2019, published 2023).

pIC50: −log10 of the molar value.

For experiment [1], the target named is T1, ERK1 (Homo sapiens, UniProt P27361).
T1 construct: purchased Jubilant Biosys
Description: ERK1 HTRF (biochemical) assay. The protocol: (§1) ERK1 and ERK2 HTRF (Biochemical) Assays
(§2) The assays described below employed a homogeneous time resolved fluorescence (HTRF) technique. The compounds were serially diluted by half-log with concentrations ranging from 0.0005 to 10 uM in the assay buffer (50 mM Tris pH-7.5, 1 mM EGTA, 2 mM DTT, 10 mM MgCl2, 0.1% Tween-20) and 20 uL of substrate-ATP mix [1 uM Biotin—LC-Myelin Basic Protein (MBP) derivatized Peptide (Anaspec)-24 uM ATP (Sigma)] was added to each well of the assay plate. Then 10 uL of enzyme mix [25 nM ERK1 or ERK2 (Jubilant Biosys) in assay buffer] was added to each well. The plate was incubated at room temperature for 60 min with shaking. The HTRF mix [625 nM LANCE® Ultra Europium-anti-phospho-MBP (Perkin Elmer) and 2 nM Phycolink® Streptavidin-Allophycocyanin (SA-APC) (Prozyme) in HTRF buffer (50 mM Tris-HCl pH-7.5, 100 mM NaCl, 0.1% BSA, 0.05% Tween20, 0.5 mM EDTA)] was prepared and 75 uL of this mix was added to the HTRF plate. After incubation for 60 min at room temperature, 10 uL of the reaction mixture was transferred to the HTRF assay plate and incubated for 45 min at room temperature with shaking. Plate was read using Pherastar in HTRF mode (excitation 337 nm, emission 665 & 620 nm). The IC50 values (half maximal inhibitory concentration values) were subsequently determined using a sigmoidal dose-response curve (variable slope) in GraphPad Prism® 5 software.

For experiment [2], the target named is T2, ERK2 (Homo sapiens, UniProt P28482).
T2 construct: purchased Jubilant Biosys
In words: ERK2 HTRF (biochemical) assay. Here is the method:
as §1, §2

The test system of experiment [3] is HT-29 (colorectal carcinoma, B-RafV600E) cells. Description: Cell proliferation (Alamar Blue) assay, HT-29. Type of experiment: cell-based, human. The conditions noted are these: Homo sapiens, HT-29, 72 h, read-out: Cell Proliferation Assay HT29 IC50. The protocol:
(§3) Cell Proliferation (Alamar Blue) Assay
(§4) HT-29 (colorectal carcinoma, B-RafV600E), HCT116 (colorectal carcinoma, K Ras G13D), A375 (melanoma, B-RafV600E) and SK-Mel2 (melanoma, NRAS Q61R) cells (obtained from ATCC, USA) were seeded (5000 cells/well) in 96-well tissue culture plate and incubated at 37° C./5% CO2 for 16-24 hours. The cells were then treated with compounds, at concentrations typically from 0.0005 to 10 uM prepared in 3-fold serial dilutions. The plates were then incubated for 72 h at 37° C./5% CO2 in a moist environment. Then Alamar Blue™ reagent (final concentration 1×) was added to each well and incubated for 1-3 h at 37° C./5% CO2. The plates were read on fluorescence reader at 540 nm excitation and 590 nm emission wavelengths. The IC50 values were subsequently determined using a sigmoidal dose-response curve (variable slope) using GraphPad Prism® 5 software. Compounds of the present disclosure caused inhibition of HT-29, HCT116, A375 and SK-Mel2 cell proliferation as determined in these assays.
For orientation: Alamar Blue is a resazurin reagent that responds to reducing activity.

For experiment [4], the system named is HCT116 (colorectal carcinoma, K Ras G13D) cells. In words: Cell proliferation (Alamar Blue) assay, HCT116. The experiment is classed as cell-based, human. The conditions noted are these: Homo sapiens, HCT-116, 72 h. The protocol:
as §3, §4

The subject of experiment [5] is phosphorylation of RSK1(S380) (the downstream target of ERK1/2). In words: Mechanistic (phospho-RSK1(S380) ELISA) assay in HT-29 cells. Particulars: Homo sapiens, HT-29, 2 h, 2 h treatment, read-out: Mechanistic Cell Assay RSK1 Phos HT29 IC50. The experiment is classed as cell-based, human. Here is the method:
Mechanistic (Phospho-RSK1(5380) ELISA) Assay
HT-29 cells (colorectal carcinoma, B-RafV600E); obtained from ATCC, USA) were seeded (60,000 cells/well) in a 96-well plate and incubated at 37° C./5% CO2 overnight and then treated with desired compound dilutions for 2 h. Medium was removed and cells were rinsed once with ice-cold 1×PBS, then 0.070 mL ice-cold 1× cell lysis buffer containing 1 mM PMSF was added to each well and the plate was incubated on a shaker for 2 h and 30 min at 4° C. The plate was then centrifuged for 20 min (×4000 rpm) at 4° C. and the supernatant was transferred to a new plate. Cell lysates were diluted with sample diluent at a ratio of 1:1. The ELISA was then carried out following the manufacturer's protocol (PathScan® phospho-RSK1(Ser380) Sandwich ELISA Kit, Cell Signaling Technologies). The plate was read at 450 nm within 30 min after adding STOP solution. The IC50 values were subsequently determined using a sigmoidal dose-response curve (variable slope) in GraphPad Prism® 5 software. Compounds of the present disclosure inhibited phosphorylation of RSK1(5380) (the downstream target of ERK1/2) as determined in this assay.
For orientation: ELISA stands for enzyme-linked immunosorbent assay.

T2 sequence (P28482 whole entry): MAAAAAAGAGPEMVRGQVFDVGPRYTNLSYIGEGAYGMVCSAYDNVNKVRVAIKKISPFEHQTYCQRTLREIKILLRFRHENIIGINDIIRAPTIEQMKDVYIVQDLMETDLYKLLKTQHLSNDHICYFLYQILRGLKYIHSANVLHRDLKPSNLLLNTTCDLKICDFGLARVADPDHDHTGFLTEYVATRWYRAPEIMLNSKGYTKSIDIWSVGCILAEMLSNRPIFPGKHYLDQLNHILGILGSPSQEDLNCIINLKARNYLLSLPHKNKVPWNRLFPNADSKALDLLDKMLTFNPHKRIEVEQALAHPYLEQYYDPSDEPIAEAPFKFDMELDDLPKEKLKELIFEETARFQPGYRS
T1 sequence (P27361 whole entry): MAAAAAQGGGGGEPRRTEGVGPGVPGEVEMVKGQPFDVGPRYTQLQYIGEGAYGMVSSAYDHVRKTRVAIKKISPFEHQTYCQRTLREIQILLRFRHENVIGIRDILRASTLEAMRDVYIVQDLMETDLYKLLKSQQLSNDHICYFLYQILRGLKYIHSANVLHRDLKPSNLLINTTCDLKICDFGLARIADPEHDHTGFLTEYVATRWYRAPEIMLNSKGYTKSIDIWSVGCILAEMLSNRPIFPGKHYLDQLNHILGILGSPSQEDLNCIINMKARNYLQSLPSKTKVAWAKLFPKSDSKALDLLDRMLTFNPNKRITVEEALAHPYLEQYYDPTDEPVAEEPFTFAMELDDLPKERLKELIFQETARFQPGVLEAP

With `CC[C@@H](CO)Nc1cc(-n2cnc(C(=O)NC(CO)c3cccc(Cl)c3)c2)ccn1` (stereo partly drawn) [Compound 105, N-(1-(3-chlorophenyl)-2-hydroxyethyl)-1-(2-(((S)-1-hydroxybutan-2-yl)-amino)pyridin-4-yl)-1H-imidazole-4-carboxamide], the pIC50 is no less than 7.30 in experiment [1]; no less than 7.30 in experiment [2]; less than 5.60 in experiment [3]; less than 5.60 in experiment [4]; 6.60 to 7.00 in experiment [5].

As to `Cc1cnc(Nc2ccc3c(c2)OC(F)(F)O3)cc1-n1cc(C(=O)NC(CN)Cc2ccccc2)nn1` (centres unmarked) [Compound 134], in experiment [2], the pIC50 was 5.60 to 6.30.

With `Cc1cnc(NC(C)C2CCOCC2)nc1-n1cnc(C(=O)N[C@H](CO)c2cccc(Cl)c2)c1` (some centres unmarked) [Example 239], the pIC50 in experiment [1] is no less than 7.30; in experiment [2], no less than 7.30; in experiment [4], less than 5.60; in experiment [5] it was 5.60 to 6.30.

Consider `Cc1cnc(Nc2ccc(Oc3ccccc3)cc2)nc1-n1cnc(C(=O)N[C@H](CO)c2cccc(Cl)c2)c1` [Example 250, N-(1-(3-chlorophenyl)-2-hydroxyethyl)-1-(5-methyl-2-((4-phenoxyphenyl)-amino)pyrimidin-4-yl)-1H-imidazole-4-carboxamide], for which the pIC50 was 5.60 to 6.30 in experiment [1] and 6.30 to 7.00 in experiment [2].

With `Cc1cnc(N[C@H]2CCOC2)nc1-n1cnc(C(=O)N[C@H](CN)c2cc(F)cc(Cl)c2)c1` [Example 282, N-(2-amino-1-(3-chloro-5-fluorophenyl)ethyl)-1-(5-methyl-2-(((S)-tetrahydrofuran-3-yl)amino)pyrimidin-4-yl)-1H-imidazole-4-carboxamide], the pIC50 was no less than 7.30 in experiment [1]; no less than 7.30 in experiment [2]; no less than 7.00 in experiment [3]; no less than 7.00 in experiment [4]; no less than 7.00 in experiment [5].
